# Laboratory results from patent US11801304B2, “Formulated and/or co-formulated liposome compositions containing TFGB antagonist prodrugs useful in the treatment of cancer and methods thereof” (Nammi Therapeutics, Inc., priority 2020, dated 2023).
# Assay: Solubility in ethanol when preparing stock solution
# Format: physicochemical
# Conditions: stock solution 20 mg/ml prepared in acetonitrile instead
# Description: In another experiment, a liposome comprising the TB4 prodrug (denoted LNP-TB4) was synthesized in the following manner. Briefly, In the first step, a lipid stock solution of POPC (1-palmitoyl-2-oleoyl-glycero-3-phosphocholine), CHOL, and DSPE-PEG, was prepared in ethanol (20 mg/ml) separately. […] The of lipid mixture of POPC, CHOL, TB4+Stearic Acid and DSPE-PEG was mixed together at a molar ratio of 51:29:16.5:3.5, and subsequently diluted with ethanol to get a total lipid concentration of 10 mg/ml. This lipid mixture was heated at 55-60 degree Centigrade using the heating block attachment in the microfluidizer. Similarly, the aqueous phase containing 1 mM PBS buffer was also preheated at 55-60 degree centigrade before passing through the microfluidics cartridge at the flow rate of 5:1 (aqueous:organic phase, lipid mixture). The solvent was removed using dialysis membrane of cut off 12 KDa size (Sigma Aldrich) against DI water for at least 24 hrs. The Dialysis water was changed at least 5 times during the period of 24 hrs. to maximize the removal of the solvent. After the removal of the solvent, the LNP-TB4 was concentrated according to the need using Amicon centrifugal filtration device (cut off size 10 KDa, at 3000 g).
# In another experiment, a liposome comprising the TB4 prodrug (denoted LNP-TB4) was co-formulated with ID3 and synthesized in the following manner. […]
compound,measurement,value
CCCCCCCCCCCCCCCCCC(=O)OCOC(=O)N(C(=O)c1ccc(-c2cc(-c3c[nH]nc3-c3ccccn3)ccn2)cc1)C1CCOCC1 [TB4 prodrug],solubility in ethanol (in words),not soluble in ethanol
